Data from ChEMBL document CHEMBL1201861, “Genomics of Drug Sensitity in Cancer screening data, Wellcome Trust Sanger Institute”.

What was measured:
NCI-H1436 = test: cells; type: functional, cell-based, Homo sapiens; conditions: Homo sapiens, NCI-H1436;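 further: growth suppression of human NCI-H1436 cells, determined with a cell viability readout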
Description: SANGER: Inhibition of human NCI-H1436 cell growth in a cell viability assay.

NB14 = test: cells; type: functional, cell-based, Homo sapiens; conditions: Homo sapiens, NB14;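 further: growth inhibition of NB14 cells measured with a cell viability assay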
Description: SANGER: Inhibition of human NB14 cell growth in a cell viability assay.

NCI-H719 = test: cells; type: functional, cell-based, Homo sapiens; conditions: Homo sapiens, NCI-H719;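 further: growth inhibition of the cultured cell line, read out with a viability assay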
Description: SANGER: Inhibition of human NCI-H719 cell growth in a cell viability assay.

PF-382 = test: cells; type: functional, cell-based, Homo sapiens; conditions: Homo sapiens, PF-382
Description: SANGER: Inhibition of human PF-382 cell growth in a cell viability assay.

HC-1 = test: cells; type: functional, cell-based, Homo sapiens; conditions: Homo sapiens, HC-1;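 further: growth inhibition of HC-1 cells measured by a cell viability assay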
Description: SANGER: Inhibition of human HC-1 cell growth in a cell viability assay.

CHP-126 = test: cells; type: functional, cell-based, Homo sapiens; conditions: Homo sapiens, CHP-126
Description: SANGER: Inhibition of human CHP-126 cell growth in a cell viability assay.

BC1 cell line = test: SANGER: Inhibition of human BC-1 cell growth in a cell viability assay.; type: functional, cell-based; conditions: Homo sapiens, BC1
NCI-H2107 = test: SANGER: Inhibition of human NCI-H2107 cell growth in a cell viability assay.; type: functional, cell-based
EW-12 = test: SANGER: Inhibition of human EW-12 cell growth in a cell viability assay.; type: functional, cell-based; conditions: Homo sapiens, EW-12
SK-MES-1 = test: cells; type: functional, cell-based; conditions: Homo sapiens;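 further: growth inhibition of human SK-MES-1 cells, read out with a cell viability assay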
Description: SANGER: Inhibition of human SK-MES-1 cell growth in a cell viability assay.

SW1573 = test: cells; type: functional, cell-based; conditions: Homo sapiens;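 further: growth inhibition of SW1573 cells, read out with a cell viability assay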
Description: SANGER: Inhibition of human SW1573 cell growth in a cell viability assay.

CAL-33 = test: cells; type: functional, cell-based; conditions: Homo sapiens;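 further: growth inhibition of CAL-33 cells, read out with a cell viability assay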
Description: SANGER: Inhibition of human CAL-33 cell growth in a cell viability assay.

RCM-1 = test: cells; type: functional, cell-based; conditions: Homo sapiens;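 further: growth inhibition of the RCM-1 line, determined with a cell viability readout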
Description: SANGER: Inhibition of human RCM-1 cell growth in a cell viability assay.

HMV-2 cell line = test: cells; type: functional, cell-based; conditions: Homo sapiens;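 further: growth inhibition of HMV-II cells, read out with a cell viability assay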
Description: SANGER: Inhibition of human HMV-II cell growth in a cell viability assay.

KNS-62 = test: cells; type: functional, cell-based; conditions: Homo sapiens;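 further: inhibition of cell growth, read out with a cell viability assay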
Description: SANGER: Inhibition of human KNS-62 cell growth in a cell viability assay.

SK-OV-3 = test: cells; type: functional, cell-based; conditions: Homo sapiens;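 further: growth inhibition of SK-OV-3 human cells, read out with a cell viability assay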
Description: SANGER: Inhibition of human SK-OV-3 cell growth in a cell viability assay.

H-EMC-SS = test: cells; type: functional, cell-based; conditions: Homo sapiens
Description: SANGER: Inhibition of human H-EMC-SS cell growth in a cell viability assay.

GCT = test: cells; type: functional, cell-based; conditions: Homo sapiens;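 further: GCT cell line proliferation inhibition, read out with a cell viability assay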
Description: SANGER: Inhibition of human GCT cell growth in a cell viability assay.

ZR-75-30 = test: cells; type: functional, cell-based; conditions: Homo sapiens;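 further: growth inhibition of ZR-75-30 cells, measured with a cell viability readout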
Description: SANGER: Inhibition of human ZR-75-30 cell growth in a cell viability assay.

OC-314 = test: cells; type: functional, cell-based; conditions: Homo sapiens
Description: SANGER: Inhibition of human OC-314 cell growth in a cell viability assay.

MG-63 = test: cells; type: functional, cell-based; conditions: Homo sapiens;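 further: growth inhibition of human MG-63 cells, read out with a cell viability assay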
Description: SANGER: Inhibition of human MG-63 cell growth in a cell viability assay.

NCI-H358 = test: cells; type: functional, cell-based; conditions: Homo sapiens;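 further: growth inhibition of NCI-H358 human cells, read out with a cell viability assay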
Description: SANGER: Inhibition of human NCI-H358 cell growth in a cell viability assay.

HPAF-II = test: cells; type: functional, cell-based; conditions: Homo sapiens;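 further: growth inhibition of HPAF-II cells, read out with a cell viability assay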
Description: SANGER: Inhibition of human HPAF-II cell growth in a cell viability assay.

PANC-08-13 = test: cells; type: functional, cell-based; conditions: Homo sapiens
Description: SANGER: Inhibition of human PANC-08-13 cell growth in a cell viability assay.

BT-549 = test: cells; type: functional, cell-based; conditions: Homo sapiens
Description: SANGER: Inhibition of human BT-549 cell growth in a cell viability assay.

TGBC11TKB = test: cells; type: functional, cell-based; conditions: Homo sapiens;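 further: growth inhibition of human TGBC11TKB cells, measured by a cell viability assay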
Description: SANGER: Inhibition of human TGBC11TKB cell growth in a cell viability assay.

OVCAR-8 = test: cells; type: functional, cell-based; conditions: Homo sapiens;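 further: growth inhibition of human OVCAR-8 cells, read out by a cell viability assay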
Description: SANGER: Inhibition of human OVCAR-8 cell growth in a cell viability assay.

NCI-H520 = test: cells; type: functional, cell-based; conditions: Homo sapiens;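 further: growth inhibition of NCI-H520 cells, measured by a cell viability assay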
Description: SANGER: Inhibition of human NCI-H520 cell growth in a cell viability assay.

H4 = test: cells; type: functional, cell-based; conditions: Homo sapiens
Description: SANGER: Inhibition of human H4 cell growth in a cell viability assay.

647-V = test: cells; type: functional, cell-based; conditions: Homo sapiens;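 further: growth inhibition of 647-V cells, read out with a cell viability assay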
Description: SANGER: Inhibition of human 647-V cell growth in a cell viability assay.

C32 = test: cells; type: functional, cell-based; conditions: Homo sapiens;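 further: cell viability assay, with IC50 reflecting inhibition of C32 cell growth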
Description: SANGER: Inhibition of human C32 cell growth in a cell viability assay.

HT-3 = test: cells; type: functional, cell-based; conditions: Homo sapiens;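 further: growth inhibition measured with a cell viability readout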
Description: SANGER: Inhibition of human HT-3 cell growth in a cell viability assay.

NBsusSR = test: cells; type: functional, cell-based; conditions: Homo sapiens;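 further: growth inhibition of the human cell line, read out with a cell viability assay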
Description: SANGER: Inhibition of human NBsusSR cell growth in a cell viability assay.

NCI-H460 = test: cells; type: functional, cell-based; conditions: Homo sapiens;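 further: cell viability assay scoring growth inhibition of human NCI-H460 cells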
Description: SANGER: Inhibition of human NCI-H460 cell growth in a cell viability assay.

D-423MG = test: cells; type: functional, cell-based; conditions: Homo sapiens
Description: SANGER: Inhibition of human D-423MG cell growth in a cell viability assay.

CHP-212 = test: cells; type: functional, cell-based; conditions: Homo sapiens
Description: SANGER: Inhibition of human CHP-212 cell growth in a cell viability assay.

KYSE-270 = test: cells; type: functional, cell-based; conditions: Homo sapiens;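 further: cell growth inhibition measured with a viability assay in the human KYSE-270 line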
Description: SANGER: Inhibition of human KYSE-270 cell growth in a cell viability assay.

VMRC-RCZ = test: cells; type: functional, cell-based; conditions: Homo sapiens
Description: SANGER: Inhibition of human VMRC-RCZ cell growth in a cell viability assay.

BHY = test: cells; type: functional, cell-based; conditions: Homo sapiens;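 further: cell growth inhibition read out by a viability assay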
Description: SANGER: Inhibition of human BHY cell growth in a cell viability assay.

NCI-H2228 = test: cells; type: functional, cell-based; conditions: Homo sapiens;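 further: growth inhibition of human NCI-H2228 cells, read out by a cell viability assay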
Description: SANGER: Inhibition of human NCI-H2228 cell growth in a cell viability assay.

ECC10 = test: cells; type: functional, cell-based; conditions: Homo sapiens;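 further: growth inhibition of ECC10 cells, read out by a cell viability assay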
Description: SANGER: Inhibition of human ECC10 cell growth in a cell viability assay.

CAPAN-1 = test: cells; type: functional, cell-based; conditions: Homo sapiens;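 further: growth suppression of CAPAN-1 cells, read out by a cell viability assay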
Description: SANGER: Inhibition of human CAPAN-1 cell growth in a cell viability assay.

SK-MEL3 = test: cells; type: functional, cell-based, SK-MEL-3; conditions: Homo sapiens;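 further: growth inhibition of human SK-MEL-3 cells, read out with a cell viability assay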
Description: SANGER: Inhibition of human SK-MEL-3 cell growth in a cell viability assay.

JEG-3 = test: cells; type: functional, cell-based; conditions: Homo sapiens;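 further: growth inhibition of human JEG-3 cells, read out with a cell viability assay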
Description: SANGER: Inhibition of human JEG-3 cell growth in a cell viability assay.

MIA PaCa-2 = test: cells; type: functional, cell-based; conditions: Homo sapiens;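 further: growth inhibition of MIA PaCa-2 cells, read out with a cell viability assay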
Description: SANGER: Inhibition of human MIA-PaCa-2 cell growth in a cell viability assay.

SK-LU-1 = test: cells; type: functional, cell-based; conditions: Homo sapiens;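 further: cell viability assay measuring growth inhibition of human SK-LU-1 cells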
Description: SANGER: Inhibition of human SK-LU-1 cell growth in a cell viability assay.

HT-1376 = test: cells; type: functional, cell-based; conditions: Homo sapiens
Description: SANGER: Inhibition of human HT-1376 cell growth in a cell viability assay.

Daoy = test: cells; type: functional, cell-based; conditions: Homo sapiens;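 further: daoy cell growth inhibition, read out as cell viability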
Description: SANGER: Inhibition of human Daoy cell growth in a cell viability assay.

BCPAP = test: cells; type: functional, cell-based; conditions: Homo sapiens;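 further: growth inhibition of BCPAP cells, read out in a cell viability assay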
Description: SANGER: Inhibition of human BCPAP cell growth in a cell viability assay.

NCI-H292 = test: cells; type: functional, cell-based; conditions: Homo sapiens;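 further: growth inhibition of NCI-H292 cells, read out with a cell viability assay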
Description: SANGER: Inhibition of human NCI-H292 cell growth in a cell viability assay.

HSC-3 = test: cells; type: functional, cell-based; conditions: Homo sapiens
Description: SANGER: Inhibition of human HSC-3 cell growth in a cell viability assay.

`C=CC(=O)N1CCCC(Nc2nc(Nc3ccc(N(C)C(=O)CC)cc3)nc3[nH]cnc23)C1` (centres undefined) was tested, and the IC50 (NCI-H1436) was > 10.2 µM, the IC50 (NB14) was > 10.2 µM and the IC50 (NCI-H719) was > 10.2 µM. For the same compound, the IC50 (PF-382) was > 10.2 µM, the IC50 (HC-1) was > 10.2 µM and the IC50 (CHP-126) was > 10.2 µM. The IC50 (BC1 cell line) was > 10.2 µM, the IC50 (NCI-H2107) was > 10.2 µM and the IC50 (EW-12) was > 10.2 µM.

`NC(=O)c1cccc(-c2cc(Nc3ccc(OC(F)(F)F)cc3)ncn2)c1` was tested, and the IC50 (NCI-H1436) was > 1.28 µM, the IC50 (NB14) was > 1.28 µM and the IC50 (NCI-H719) was > 1.28 µM. The IC50 (PF-382) was > 1.28 µM, the IC50 (HC-1) was > 1.28 µM and the IC50 (CHP-126) was > 1.28 µM. For the same compound, the IC50 (BC1 cell line) was > 1.28 µM, the IC50 (NCI-H2107) was > 1.28 µM and the IC50 (EW-12) was > 1.28 µM.

With `NC(=O)Nc1cc(-c2cccc(F)c2)sc1C(=O)N[C@H]1CCCNC1` [AZD-7762] the IC50 (SK-MES-1) was 0.443 µM, the IC50 (SW1573) was 0.942 µM and the IC50 (CAL-33) was 0.984 µM. For the same compound, the IC50 (RCM-1) was 0.993 µM, the IC50 (HMV-2 cell line) was > 2 µM and the IC50 (KNS-62) was 0.566 µM. For the same compound, the IC50 (SK-OV-3) was > 2 µM, the IC50 (H-EMC-SS) was 0.284 µM and the IC50 (GCT) was 0.649 µM. The IC50 (ZR-75-30) was > 2 µM, the IC50 (OC-314) was 0.0781 µM and the IC50 (MG-63) was > 2 µM. It also gave an IC50 (NCI-H358) of 1.43 µM, an IC50 (HPAF-II) of 0.97 µM and an IC50 (PANC-08-13) of 0.661 µM. It also gave an IC50 (NB14) of 0.0614 µM, an IC50 (BT-549) of 1.27 µM and an IC50 (TGBC11TKB) of 0.111 µM. For the same compound, the IC50 (OVCAR-8) was 0.356 µM, the IC50 (NCI-H520) was 1.38 µM and the IC50 (H4) was 0.221 µM. The IC50 (647-V) was 0.618 µM, the IC50 (C32) was 0.347 µM and the IC50 (HT-3) was 0.49 µM. It also gave an IC50 (NBsusSR) of 0.318 µM, an IC50 (NCI-H460) of 1.53 µM and an IC50 (HC-1) of 0.521 µM. For the same compound, the IC50 (D-423MG) was 0.331 µM, the IC50 (CHP-212) was 0.198 µM and the IC50 (KYSE-270) was 0.226 µM. It also gave an IC50 (VMRC-RCZ) of 0.906 µM, an IC50 (BHY) of 0.688 µM and an IC50 (NCI-H2228) of 1.29 µM. For the same compound, the IC50 (ECC10) was > 2 µM, the IC50 (CAPAN-1) was > 2 µM and the IC50 (SK-MEL3) was > 2 µM. The IC50 (JEG-3) was > 2 µM, the IC50 (MIA PaCa-2) was 0.375 µM and the IC50 (SK-LU-1) was 0.0842 µM. The IC50 (HT-1376) was > 2 µM, the IC50 (Daoy) was 0.451 µM and the IC50 (BCPAP) was 1.89 µM. For the same compound, the IC50 (NCI-H292) was 0.898 µM and the IC50 (HSC-3) was 0.486 µM.

In the case of `Cc1ccc(-n2nc(C(C)(C)C)cc2NC(=O)Nc2ccc(OCCN3CCOCC3)c3ccccc23)cc1` [DORAMAPIMOD], the IC50 (SK-MES-1) is reported as > 10 µM, the IC50 (SW1573) is reported as > 10 µM and the IC50 (CAL-33) is reported as > 10 µM. The IC50 (RCM-1) was > 10 µM, the IC50 (HMV-2 cell line) was > 10 µM and the IC50 (KNS-62) was > 10 µM. For the same compound, the IC50 (SK-OV-3) was > 10 µM, the IC50 (H-EMC-SS) was > 10 µM and the IC50 (GCT) was > 10 µM. The IC50 (ZR-75-30) was > 10 µM, the IC50 (OC-314) was > 10 µM and the IC50 (MG-63) was > 10 µM. For the same compound, the IC50 (NCI-H358) was 7.54 µM, the IC50 (HPAF-II) was > 10 µM and the IC50 (PANC-08-13) was > 10 µM. For the same compound, the IC50 (NB14) was > 10 µM, the IC50 (BT-549) was > 10 µM and the IC50 (TGBC11TKB) was > 10 µM. For the same compound, the IC50 (OVCAR-8) was > 10 µM, the IC50 (NCI-H520) was > 10 µM and the IC50 (H4) was > 10 µM. For the same compound, the IC50 (647-V) was > 10 µM, the IC50 (C32) was > 10 µM and the IC50 (HT-3) was > 10 µM. The IC50 (NBsusSR) was > 10 µM, the IC50 (NCI-H460) was > 10 µM and the IC50 (D-423MG) was > 10 µM. The IC50 (CHP-212) was > 10 µM, the IC50 (KYSE-270) was > 10 µM and the IC50 (VMRC-RCZ) was > 10 µM. For the same compound, the IC50 (BHY) was > 10 µM, the IC50 (NCI-H2228) was > 10 µM and the IC50 (ECC10) was > 10 µM. For the same compound, the IC50 (CAPAN-1) was > 10 µM, the IC50 (SK-MEL3) was > 10 µM and the IC50 (JEG-3) was > 10 µM. The IC50 (MIA PaCa-2) was > 10 µM, the IC50 (SK-LU-1) was > 10 µM and the IC50 (HT-1376) was > 10 µM. The IC50 (Daoy) was > 10 µM, the IC50 (BCPAP) was > 10 µM and the IC50 (NCI-H292) was > 10 µM. For the same compound, the IC50 (HSC-3) was > 10 µM.

For `CC1=C(/C=C/C(C)=C/C=C/C(C)=C/C(=O)O)C(C)(C)CCC1` [TRETINOIN], the IC50 (SK-MES-1) was > 10 µM, the IC50 (SW1573) was > 10 µM and the IC50 (CAL-33) was > 10 µM. The IC50 (RCM-1) was > 10 µM, the IC50 (HMV-2 cell line) was > 10 µM and the IC50 (KNS-62) was > 10 µM. The IC50 (SK-OV-3) was > 10 µM, the IC50 (H-EMC-SS) was > 10 µM and the IC50 (GCT) was > 10 µM. For the same compound, the IC50 (ZR-75-30) was > 10 µM, the IC50 (OC-314) was > 10 µM and the IC50 (MG-63) was > 10 µM. For the same compound, the IC50 (NCI-H358) was > 10 µM, the IC50 (HPAF-II) was > 10 µM and the IC50 (PANC-08-13) was > 10 µM. For the same compound, the IC50 (NB14) was 7.13 µM, the IC50 (BT-549) was > 10 µM and the IC50 (TGBC11TKB) was > 10 µM. The IC50 (OVCAR-8) was > 10 µM, the IC50 (NCI-H520) was > 10 µM and the IC50 (H4) was > 10 µM. For the same compound, the IC50 (647-V) was > 10 µM, the IC50 (C32) was > 10 µM and the IC50 (HT-3) was > 10 µM. For the same compound, the IC50 (NBsusSR) was 1.45 µM, the IC50 (NCI-H460) was > 10 µM and the IC50 (HC-1) was > 10 µM. The IC50 (D-423MG) was > 10 µM, the IC50 (CHP-212) was > 10 µM and the IC50 (KYSE-270) was > 10 µM. For the same compound, the IC50 (VMRC-RCZ) was > 10 µM, the IC50 (BHY) was > 10 µM and the IC50 (NCI-H2228) was > 10 µM. The IC50 (ECC10) was 2.38 µM, the IC50 (CAPAN-1) was > 10 µM and the IC50 (SK-MEL3) was > 10 µM. The IC50 (JEG-3) was > 10 µM, the IC50 (MIA PaCa-2) was > 10 µM and the IC50 (SK-LU-1) was > 10 µM. For the same compound, the IC50 (HT-1376) was > 10 µM, the IC50 (Daoy) was > 10 µM and the IC50 (BCPAP) was > 10 µM. For the same compound, the IC50 (NCI-H292) was > 10 µM and the IC50 (HSC-3) was > 10 µM.
